According to patent US9776965B2, “Pyrrolidin-2-one and piperidin-2-one derivatives as 11-beta hydroxysteroid dehydrogenase inhibitors” (Janssen Pharmaceutica N.V., priority 2004, dated 2017):

Tests used:
11b-HSD1 [1] = target: T1, 11b-HSD1 (Mus musculus, UniProt P50172); test: Cellular assay, 11b-HSD1 activity in differentiated 3T3-L1 cells; format: cell-based; conditions: 4 hour pre-incubation; for IC50: read-out: [C2] HSD1 cellular 3T3-L1 Score
T1 construct: Fibroblasts were differentiated into adipocytes; endogenous in cells; host or cells: differentiated 3T3-L1 cells (ATCC-CL-173)
Summary of the method: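 Differentiated mouse 3T3-L1 adipocytes pre-incubated 4 hours with compound (final 3.10^−9 to 10^−5 M), then 0.5 μCi ³H-cortisone or dehydrocorticosterone added for one hour. Medium extracted with diethyl ether and steroids resolved by HPLC; pIC50 from dose-response curves, reported as scores.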

11b-HSD1 [2] = target: 11b-HSD1 (Homo sapiens, UniProt P28845); test: Enzymatic assay, 11b-HSD1 dependent conversion of cortisone into cortisol (reductase activity); format: biochemical; conditions: recombinant protein, 2 μM cortisone, 45 min at 37 C; for IC50: read-out: [C1] HSD1-prot Reduct Score
Summary of the method: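 Recombinant human 11b-HSD1 (11 µg) with 2 µM cortisone and 180 µM NADPH in 30 mM Tris-HCl pH 7.2, 1 mM EDTA, incubated 45 min at 37 °C. Cortisol formation was measured by HPLC with a corticosterone internal standard. Compounds were tested from 10^−5 M to 3.10^−9 M, and pIC50 was scored as 1 (<5), 2 (5–6) or 3 (>6).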

11b-HSD2 [3] = target: T2, 11b-HSD2 (Homo sapiens, UniProt P80365); test: Enzymatic assay, 11b-HSD2 dependent dehydrogenase activity; format: biochemical; conditions: recombinant protein, 100 nM cortisol, 45 min at 37 C; read-out: [C1] HSD2 prot Dehydro Score
T2 sequence (P80365 1-405): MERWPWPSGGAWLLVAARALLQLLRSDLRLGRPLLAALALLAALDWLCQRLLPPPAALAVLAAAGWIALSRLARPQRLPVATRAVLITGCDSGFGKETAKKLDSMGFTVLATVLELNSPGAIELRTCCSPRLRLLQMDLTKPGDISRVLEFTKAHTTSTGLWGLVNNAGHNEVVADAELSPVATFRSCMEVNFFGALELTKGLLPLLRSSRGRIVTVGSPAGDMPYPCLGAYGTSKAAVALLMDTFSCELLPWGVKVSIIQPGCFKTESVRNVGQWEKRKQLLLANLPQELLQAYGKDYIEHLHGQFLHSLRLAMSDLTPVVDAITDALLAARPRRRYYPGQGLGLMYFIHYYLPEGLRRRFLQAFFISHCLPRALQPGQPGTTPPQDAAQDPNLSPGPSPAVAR
Description: The effects on the 11b-HSD2 dependent dehydrogenase activity was studied in a reaction mixture containing 0.1M sodium phosphate buffer pH 7.5, 300 μM NAD, 100 nM cortisol (of which 2 nM is 3H-radio labelled), 1 μl drug and/or solvent and 2.5 μg recombinant protein in a final volume of 100 μl.
All incubations were performed for 45 min at 37 C in a water bath. The reaction was stopped by adding 100 μl acetonitrile containing 20 μg corticosterone as internal standard. After centrifugation, the product formation was analysed in the supernatant by HPLC on a Hypersyl BDS-C18 column using 0.05 mM ammonium acetate/methanol (50/50) as solvent. In all of the aforementioned assays, the drugs to be tested were taken from a stock solution and tested at a final concentration ranging from […] to 3.10^−9M. From the thus obtained dose response curves, the pIC50 value was calculated and scored as follows; Score 1=pIC50 value<5, Score 2=pIC50 value in the range of 5 to 6, Score 3=pIC50 value>6. (in this table NT stands for Not Tested).

11b-HSD2 [4] = target: T2, 11b-HSD2; test: Cellular assay, 11b-HSD2 activity in HepG2 cells; format: cell-based; parameters: endogenous in cells; host or cells: HepG2 (ATCC HB-8065); conditions: 4 hour pre-incubation; for IC50: read-out: [C2] HSD2 cellular HepG2 Score
Description: The effects on 11b-HSD2 activity was studied in HepG2 and LCC-PK1-cells HepG2-cells (ATCC HB-8065) were seeded in 12 well plates at a density of 100,000 cells/ml and grown at 37 C in a humidified 5% CO2 atmosphere in MEM-Rega-3 medium supplemented with 10% heat inactivated foetal calf serum, 2 mM L-glutamine and sodium bicarbonate). Medium was refreshed twice a week.
Following a 4 hour pre-incubation with test compound, 0.5 μCi ^3H-cortisol or corticosterone, was added to the cultures. One hour later, the medium was extracted on Extrelut^3-columns with 15 ml diethyl ether and the extract was analysed by HPLC as described above.
As for the enzymatic assays, the compounds to be tested were taken from a stock solution and tested at a final concentration ranging from […] to 3.10^−9M. From the thus obtained dose response curves, the pIC50 value was calculated and scored as follows; Score 1=pIC50 value<5, Score 2=pIC50 value in the range of 5 to 6, Score 3=pIC50 value>6. Some of the thus obtained results are summarized in the table below (in this table NT stands for Not Tested).

T1 sequence (P50172 whole entry): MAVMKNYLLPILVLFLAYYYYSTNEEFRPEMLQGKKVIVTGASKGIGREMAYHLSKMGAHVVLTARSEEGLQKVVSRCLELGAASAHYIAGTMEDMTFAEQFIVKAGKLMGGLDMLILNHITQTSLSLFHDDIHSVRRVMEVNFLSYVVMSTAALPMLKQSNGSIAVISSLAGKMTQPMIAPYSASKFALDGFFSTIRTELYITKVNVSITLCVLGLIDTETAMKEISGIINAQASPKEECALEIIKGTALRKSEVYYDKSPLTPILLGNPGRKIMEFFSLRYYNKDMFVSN
11b-HSD1 (Homo sapiens, UniProt P28845), sequence (P28845 whole entry): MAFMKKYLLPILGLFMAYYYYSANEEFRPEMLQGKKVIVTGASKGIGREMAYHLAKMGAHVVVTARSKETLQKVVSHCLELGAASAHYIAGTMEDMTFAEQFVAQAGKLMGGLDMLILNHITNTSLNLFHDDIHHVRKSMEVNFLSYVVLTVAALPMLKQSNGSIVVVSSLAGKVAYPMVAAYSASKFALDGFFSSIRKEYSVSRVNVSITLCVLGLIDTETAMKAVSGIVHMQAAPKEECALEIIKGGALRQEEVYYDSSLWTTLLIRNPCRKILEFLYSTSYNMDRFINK

| Structure (SMILES) | IC50 (11b-HSD1 [1]) | IC50 (11b-HSD1 [2]) | IC50 (11b-HSD2 [3]) | IC50 (11b-HSD2 [4]) | melting point | [C2] HSD1 cellular 3T3-L1 Score (11b-HSD1 [1]) | [C1] HSD1-prot Reduct Score (11b-HSD1 [2]) | [C2] HSD2 cellular HepG2 Score (11b-HSD2 [4]) |
| --- | --- | --- | --- | --- | --- | --- | --- | --- |
| Cc1ccccc1C[C@@H]1CCN([C@@H](C)c2ccccc2)C1=O [Compound 1] | < 1 µM | < 1 µM | > 10 µM | > 10 µM |  |  |  |  |
| C[C@@H](c1ccccc1)N1CC[C@H](Cc2ccccc2)C1=O [Compound 6] | 1 to 10 µM | 1 to 10 µM |  | > 10 µM |  |  |  |  |
| COc1ccccc1C[C@H]1CCN([C@@H](C)c2ccccc2)C1=O [Compound 7] | < 1 µM | 1 to 10 µM | > 10 µM | > 10 µM |  |  |  |  |
| C[C@@H](c1ccccc1)N1CC[C@H](Cc2ccccc2Cl)C1=O [Compound 9] | < 1 µM | 1 to 10 µM | > 10 µM | > 10 µM |  |  |  |  |
| C[C@@H](c1ccccc1)N1CC[C@@H](Cc2ccccc2Cl)C1=O [Compound 10] | < 1 µM | < 1 µM | > 10 µM | > 10 µM |  |  |  |  |
| C[C@@H](c1ccccc1)N1CC[C@H](Cc2c(Cl)cccc2Cl)C1=O [Compound 13] | < 1 µM | < 1 µM | > 10 µM | > 10 µM |  |  |  |  |
| C[C@@H](c1ccccc1)N1CC[C@@H](Cc2c(Cl)cccc2Cl)C1=O [Compound 14] | < 1 µM | < 1 µM | > 10 µM | > 10 µM | 75 to 76 °C |  |  |  |
| Cc1ccc(C[C@@H]2CCN([C@H](C)c3ccccc3)C2=O)cc1 [Compound 27] | < 1 µM | > 10 µM | > 10 µM | > 10 µM |  |  |  |  |
| Cc1ccccc1CC1CCN(CCc2ccccc2)C1=O (stereo not shown) [Compound 28] | < 1 µM | > 10 µM | > 10 µM | > 10 µM |  |  |  |  |
| O=C1C(Cc2ccccc2Cl)CCN1CCc1ccccc1 (stereo not shown) [Compound 30] | < 1 µM | < 1 µM | > 10 µM | > 10 µM |  |  |  |  |
| O=C1C(Cc2cccc(Cl)c2Cl)CCN1CCc1ccccc1 (stereo not shown) [Compound 31] | < 1 µM | 1 to 10 µM | > 10 µM | > 10 µM |  |  |  |  |
| O=C1C(Cc2c(Cl)cccc2Cl)CCN1CCc1ccccc1 (stereo not shown) [Compound 32] | < 1 µM | < 1 µM | > 10 µM | > 10 µM |  |  |  |  |
| Cc1ccc(CC2CCN(CCc3ccccc3)C2=O)cc1 (stereo not shown) [Compound 35] | < 1 µM | > 10 µM | > 10 µM | > 10 µM |  |  |  |  |
| C[C@H](c1ccccc1)N1CC[C@H](Cc2ccccc2Cl)C1=O [Compound 41] | < 1 µM | 1 to 10 µM | > 10 µM | > 10 µM |  |  |  |  |
| C[C@H](c1ccccc1)N1CC[C@H](Cc2c(Cl)cccc2Cl)C1=O [Compound 45] | < 1 µM | < 1 µM | > 10 µM | > 10 µM |  |  |  |  |
| O=C1C(Cc2ccccc2Cl)CCN1Cc1ccccc1 (stereo not shown) [Compound 57] | < 1 µM | 1 to 10 µM | > 10 µM | > 10 µM |  |  |  |  |
| O=C1C(Cc2c(Cl)cccc2Cl)CCN1Cc1ccccc1 (stereo not shown) [Compound 59] | < 1 µM | 1 to 10 µM | > 10 µM | > 10 µM |  |  |  |  |
| COc1ccc(C[C@H]2CCN([C@H](C)c3ccccc3)C2=O)cc1 [Compound 65] | < 1 µM | > 10 µM | > 10 µM | > 10 µM |  |  |  |  |
| Cc1ccc([C@H](O)[C@@H]2CCN([C@@H](C)c3ccccc3)C2=O)c(C)c1 [Compound 69] | < 1 µM | 1 to 10 µM |  | > 10 µM |  |  |  |  |
| C[C@@H](c1ccccc1)N1CC[C@@H](Cc2c(F)cccc2F)C1=O [Compound 70] | < 1 µM | > 10 µM |  | > 10 µM |  |  |  |  |
| C[C@@H](c1ccccc1)N1CC[C@H](Cc2c(F)cccc2F)C1=O [Compound 71] | < 1 µM | < 1 µM |  | > 10 µM |  |  |  |  |
| Cc1cccc(C)c1C[C@H]1CCN([C@@H](C)c2ccccc2)C1=O [Compound 77] |  |  |  |  |  | 3 (Score 3=pIC50 value>6) | 3 (Score 3=pIC50 value>6) | 1 (Score 1=pIC50 value<5) |
| O=C1C(Cc2c(Cl)cccc2Cl)CCN1CCc1ccc(F)cc1 (stereo not shown) [Compound 80] | < 1 µM | < 1 µM |  | > 10 µM |  |  |  |  |
| CC[C@H](c1ccccc1)N1CC[C@@H](Cc2c(Cl)cccc2Cl)C1=O [Compound 97] | > 10 µM | < 1 µM | 1 to 10 µM | > 10 µM |  |  |  |  |
| COc1ccc(C[C@@H]2CCN([C@@H](C)c3ccccc3)C2=O)c(Cl)c1OC [Compound 119] | < 1 µM | < 1 µM | 1 to 10 µM | > 10 µM |  |  |  |  |
| Cc1cccc(C)c1C[C@H]1CCN([C@@H](C)c2ccccc2)C1=O [Compound 148] | < 1 µM | > 10 µM |  | > 10 µM |  |  |  |  |
| Cc1cccc(C)c1C[C@@H]1CCN([C@@H](C)c2ccccc2)C1=O [Compound 149] | < 1 µM | > 10 µM |  | > 10 µM |  |  |  |  |
| C[C@@H](c1ccccc1)N1CC[C@H](Cc2cc3c(cc2Cl)OCO3)C1=O [Compound 154] | < 1 µM | > 10 µM |  | 1 to 10 µM |  |  |  |  |
| Cc1ccccc1C(C)[C@@H]1CCN([C@@H](C)c2ccccc2)C1=O (stereo partly shown) [Compound 162] | < 1 µM | < 1 µM | 1 to 10 µM | > 10 µM |  |  |  |  |
| Cc1ccccc1C(C)[C@H]1CCN([C@@H](C)c2ccccc2)C1=O (stereo partly shown) [Compound 163] | < 1 µM | < 1 µM | 1 to 10 µM | > 10 µM |  |  |  |  |
